The results in this text go back to US20240199654A1, “CTLA-4 SMALL MOLECULE DEGRADATION AGENT AND APPLICATION THEREOF” (SUZHOU GUOKUANG PHARMTECH. CO., LTD., priority 2021, published 2024).

Some results are limits rather than exact numbers.

The target in the assay is T1, LRBA and CTLA-4 reporting system (Homo sapiens, UniProt P16410+P50851).
T1 construct: expressed in transfected cells; host or cells: HEK293
T1 sequence (P16410 36-223): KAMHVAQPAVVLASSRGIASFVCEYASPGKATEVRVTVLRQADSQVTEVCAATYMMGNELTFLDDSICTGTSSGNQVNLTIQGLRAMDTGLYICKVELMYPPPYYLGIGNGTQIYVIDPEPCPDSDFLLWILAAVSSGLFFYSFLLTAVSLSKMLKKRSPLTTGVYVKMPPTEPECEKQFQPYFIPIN
T1 sequence (P50851 whole entry): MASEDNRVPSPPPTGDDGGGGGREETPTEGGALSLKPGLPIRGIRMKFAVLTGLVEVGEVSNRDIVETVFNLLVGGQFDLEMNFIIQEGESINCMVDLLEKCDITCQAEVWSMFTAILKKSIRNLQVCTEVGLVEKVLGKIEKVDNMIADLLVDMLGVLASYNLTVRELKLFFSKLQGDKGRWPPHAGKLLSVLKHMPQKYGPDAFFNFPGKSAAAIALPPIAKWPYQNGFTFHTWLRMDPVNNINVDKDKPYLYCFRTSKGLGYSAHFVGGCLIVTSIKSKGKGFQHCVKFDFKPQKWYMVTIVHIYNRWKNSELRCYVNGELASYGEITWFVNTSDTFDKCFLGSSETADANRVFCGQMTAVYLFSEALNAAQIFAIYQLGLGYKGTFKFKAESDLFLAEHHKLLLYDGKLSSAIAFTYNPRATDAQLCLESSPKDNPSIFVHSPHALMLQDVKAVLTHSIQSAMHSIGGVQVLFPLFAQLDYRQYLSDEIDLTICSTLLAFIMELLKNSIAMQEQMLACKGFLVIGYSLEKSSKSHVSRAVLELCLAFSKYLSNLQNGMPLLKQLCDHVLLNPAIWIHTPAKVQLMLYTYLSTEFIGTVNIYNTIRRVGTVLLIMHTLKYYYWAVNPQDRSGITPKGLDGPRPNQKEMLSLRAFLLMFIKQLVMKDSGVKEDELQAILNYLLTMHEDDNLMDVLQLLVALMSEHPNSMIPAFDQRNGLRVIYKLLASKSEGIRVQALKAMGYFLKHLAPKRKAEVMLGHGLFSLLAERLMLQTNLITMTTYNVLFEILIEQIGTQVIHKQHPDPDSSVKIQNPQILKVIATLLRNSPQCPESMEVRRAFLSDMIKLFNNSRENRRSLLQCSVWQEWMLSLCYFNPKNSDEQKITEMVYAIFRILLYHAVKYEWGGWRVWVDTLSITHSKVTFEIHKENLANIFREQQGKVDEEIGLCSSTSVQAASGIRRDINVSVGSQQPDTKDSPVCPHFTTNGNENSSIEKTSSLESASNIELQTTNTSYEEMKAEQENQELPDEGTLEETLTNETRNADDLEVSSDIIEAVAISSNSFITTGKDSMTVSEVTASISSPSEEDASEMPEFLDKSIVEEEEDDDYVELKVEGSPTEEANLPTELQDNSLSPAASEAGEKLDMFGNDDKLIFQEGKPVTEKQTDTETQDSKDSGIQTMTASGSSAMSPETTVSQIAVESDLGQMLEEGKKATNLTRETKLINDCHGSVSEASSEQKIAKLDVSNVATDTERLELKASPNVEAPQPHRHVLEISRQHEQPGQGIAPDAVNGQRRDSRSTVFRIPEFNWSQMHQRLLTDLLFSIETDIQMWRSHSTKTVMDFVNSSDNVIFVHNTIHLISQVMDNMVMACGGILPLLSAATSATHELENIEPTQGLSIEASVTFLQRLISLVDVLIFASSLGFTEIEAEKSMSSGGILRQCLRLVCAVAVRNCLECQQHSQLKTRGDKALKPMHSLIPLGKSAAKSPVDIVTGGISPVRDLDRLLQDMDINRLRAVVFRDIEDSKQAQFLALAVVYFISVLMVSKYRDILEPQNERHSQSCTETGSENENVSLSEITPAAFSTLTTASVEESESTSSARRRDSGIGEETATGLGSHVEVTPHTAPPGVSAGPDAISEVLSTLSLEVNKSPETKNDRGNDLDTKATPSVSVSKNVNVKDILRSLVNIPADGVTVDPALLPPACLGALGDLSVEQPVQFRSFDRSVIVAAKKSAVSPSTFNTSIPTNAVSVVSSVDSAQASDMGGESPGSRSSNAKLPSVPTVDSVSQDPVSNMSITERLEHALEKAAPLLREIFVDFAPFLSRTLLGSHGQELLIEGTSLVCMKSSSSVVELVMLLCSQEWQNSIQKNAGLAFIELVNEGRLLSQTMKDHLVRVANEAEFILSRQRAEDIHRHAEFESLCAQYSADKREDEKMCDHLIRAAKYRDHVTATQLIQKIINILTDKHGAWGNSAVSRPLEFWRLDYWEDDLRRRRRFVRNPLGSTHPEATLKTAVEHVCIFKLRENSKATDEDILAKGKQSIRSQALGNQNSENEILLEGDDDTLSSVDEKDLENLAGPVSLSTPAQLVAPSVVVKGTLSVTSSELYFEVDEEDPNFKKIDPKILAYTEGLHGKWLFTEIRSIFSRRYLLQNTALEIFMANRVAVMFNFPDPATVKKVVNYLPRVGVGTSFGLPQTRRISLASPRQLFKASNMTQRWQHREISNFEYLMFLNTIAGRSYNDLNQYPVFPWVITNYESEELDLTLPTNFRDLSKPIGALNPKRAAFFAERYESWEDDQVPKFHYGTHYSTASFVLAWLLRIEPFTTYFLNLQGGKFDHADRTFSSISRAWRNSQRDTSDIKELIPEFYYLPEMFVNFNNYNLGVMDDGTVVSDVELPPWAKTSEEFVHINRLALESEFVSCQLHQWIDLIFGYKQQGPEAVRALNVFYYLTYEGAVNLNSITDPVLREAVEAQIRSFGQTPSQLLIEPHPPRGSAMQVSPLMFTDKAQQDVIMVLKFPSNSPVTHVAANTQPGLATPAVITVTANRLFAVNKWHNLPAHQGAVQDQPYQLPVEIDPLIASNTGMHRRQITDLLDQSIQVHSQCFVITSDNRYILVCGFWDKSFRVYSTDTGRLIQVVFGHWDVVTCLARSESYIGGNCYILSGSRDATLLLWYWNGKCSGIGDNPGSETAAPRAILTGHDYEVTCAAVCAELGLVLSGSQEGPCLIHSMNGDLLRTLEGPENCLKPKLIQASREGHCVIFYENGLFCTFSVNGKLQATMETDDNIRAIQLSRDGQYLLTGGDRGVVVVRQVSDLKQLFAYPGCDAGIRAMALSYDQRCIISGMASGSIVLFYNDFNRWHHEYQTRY
The assay can be described thus: LRBA/CTLA-4 protein-protein interaction reporting system, dual luciferase assay in HEK293 cells. Conditions: HEK293 cells co-transfected with LRBA and CTLA-4 reporting system, 24 h after dosing; read-out: In vitro activity (IC50: concentration of compounds that inhibit 50% of reporting system activity). The format is cell-based. As for the experimental part: HEK293 cells were spread on 96-well plates, and LRBA and CTLA-4 reporting system were co-transfected into HEK293 cells after 24 h. After 24 h, different compounds with final concentrations of 0.01, 0.033, 0.10, 0.33, 1.00, 3.33, 10.00, 33.33, and 100.00 μM were added. 24 h after dosing, the cell culture medium was removed and the cells were washed with cold PBS. Then the activity of the compounds were detected by the dual luciferase assay kit, and IC50 values were calculated according to the results.
For the compounds with strong activity (IC50<200 nM), the degradation of CTLA-4 protein was further detected by Western Blot. • IC50: Concentration of compounds that inhibit 50% of reporting system activity The size of IC50 is divided into four levels: • ++++, IC50<200 nM; +++, IC50 is 200-1000 nM; ++, IC50 is 1000-2000 nM; +, IC50>2000 nM.
`COc1cc(-c2ccnc(N3CCNCC3)n2)cnc1OC` [Compound 30, 4-(5,6-dimethoxy-pyridin-3-yl)-2-piperazin-1-yl-pyrimidine]: the IC50 is above 2000 nM.

In the case of `c1ccc2ncc(-c3ncnc(N4CCNCC4)n3)cc2c1` [Compound 35, 3-(4-(piperazin-1-yl)-1,3,5-triazin-2-yl)quinoline], the IC50 was below 200 nM.

For `O=CNCC1CCN(c2nccc(-c3cnc4ccccc4c3)n2)CC1` [Compound 2, N-((1-(4-(quinolin-3-yl)pyrimidin-2-yl)piperidin-4-yl)methyl)formamide], the IC50 was above 2000 nM.

Turning to `COc1ccc(-c2cc(-c3cnc4ccccc4c3)nc(N3CCNCC3)n2)cc1` [Compound 51, 3-(6-(4-methoxyphenyl)-2-(piperazin-1-yl)pyrimidin-4-yl)quinoline], the IC50 is below 200 nM.

Turning to `c1cc(-c2ccc3c(c2)OCCO3)nc(N2CCNCC2)n1` [Compound 29, 4-(2,3-dihydrobenzo[b][1,4]dioxin-6-yl)-2-(piperazin-1-yl)pyrimidine], the IC50 is above 2000 nM.

Regarding `Cn1cnc2c(-c3cnc4ccccc4c3)nc(N3CCNCC3)nc21` [Compound 45, 3-(9-methyl-2-(piperazin-1-yl)-9H-purin-6-yl)quinoline], the IC50 was 200 to 1000 nM.

Regarding `OCCC1CCN(c2nccc(-c3cnc4ccccc4c3)n2)CC1` [Compound 21, (1-(4-(quinolin-3-yl)pyrimidin-2-yl)piperidin-4-yl)ethanol], the IC50 is above 2000 nM.

For the compound `Nc1cnc(N2CCNCC2)nc1-c1cnc2ccccc2c1` [Compound 38, 3-(5-amino-2-(piperazin-1-yl)pyrimidin-4-yl)quinoline], the IC50 is below 200 nM.

For `FC(F)(F)c1cc(-c2cnc3ccccc3c2)nc(N2CCNCC2)n1` [Compound 40, 3-(2-(piperazin-1-yl)-6-(trifluoromethyl)pyrimidin-4-yl)quinoline], the IC50 is below 200 nM.

As to `c1ccc2ncc(-c3cc(N4CCOCC4)nc(N4CCNCC4)n3)cc2c1` [Compound 49, 4-(2-(piperazin-1-yl)-6-(quinolin-3-yl)pyrimidin-4-yl)morpholine], the IC50 fell in the range of 200 to 1000 nM.

Take `COc1nc2ccccc2cc1-c1ccnc(N2CCC(CN)CC2)n1` [Compound 9, (1-(4-(2-methoxyquinolin-3-yl)pyrimidin-2-yl)piperidin-4-yl)methylamine]: the IC50 is below 200 nM.

On to `c1ccc2cc(-c3ccnc(N4CCNCC4)n3)ccc2c1` [Comparing compound 1, reference compound], for which the IC50 is above 2000 nM.

For `NC1CCN(c2nccc(-c3cnc4ccccc4c3)n2)CC1` [Compound 17, 1-(4-(quinolin-3-yl)pyrimidin-2-yl)piperidine-4-amine], the IC50 was in the range of 200 to 1000 nM.

With `NCC1CCN(c2nccc(-c3cc(=O)c4ccccc4o3)n2)CC1` [Compound 13, 2-(2-(4-(aminomethyl)piperidin-1-yl)pyrimidin-4-yl)-4hydro-benzopyran-4-one], the IC50 was above 2000 nM.

Consider `Fc1cnc(N2CCNCC2)nc1-c1cnc2ccccc2c1` [Compound 46, 3-(5-fluoro-2-(piperazin-1-yl)pyrimidin-4-yl)quinoline], for which the IC50 is below 200 nM.

Consider `C[C@@H]1CN(c2nccc(-c3cnc4ccccc4c3)n2)C[C@H](C)N1` [Compound 22, 3-(2-((3S,5R)-3,5-dimethylpiperazin-1-yl)pyrimidin-4-yl)quinoline], for which the IC50 is above 2000 nM.

With `NCC1CCN(c2cccc(-c3cnc4ccccc4c3)n2)CC1` [Compound 14, (1-(6-(quinolin-3-yl)pyridin-2-yl)piperidin-4-yl)methylamine], the IC50 was above 2000 nM.

On to `COc1cc(-c2ccnc(N3CCNCC3)n2)cnc1O` [Compound 34, 3-methoxy-5-(2-piperazin-1-yl-pyrimidin-4-yl)-pyridin-2-ol], for which the IC50 was above 2000 nM.

Take `c1ccc2ncc(-c3cc4nccn4c(N4CCNCC4)n3)cc2c1` [Compound 41, 3-(5-(piperazin-1-yl)imidazo[1,2-c]pyrimidin-7-yl)quinoline]: the IC50 was in the range of 200 to 1000 nM.
